One data set concerns Namalwa AG4 cells. The data set can be described thus: Cell proliferation assay (3H-thymidine incorporation). The following applies: one collective range stated for the tested compounds, read-out: IC50 values for inhibiting proliferation of Namalwa AG4 cells. Type of data set: cell-based. The procedure: 5.48.3 Cell Proliferation Assay
Cell lines Namalwa, MUTZ-5, and UT-7 are obtained from the Deutsche Sammlung von Mikroorganismen und Zellkulturen GmbH (Braunschweig, Germany). The cell line KG-1 is obtained from the American Type Culture Collection (Manassas, Va., USA). Cell proliferation as indicated by ^3H-thymidine incorporation is measured in all cell lines as follows.
Cells are plated in 96-well plates at 6000 cells per well in media. The cells are pre-treated with compounds at about 100, 10, 1, 0.1, 0.01, 0.001, 0.0001 and 0 μM in a final concentration of about 0.25% DMSO in triplicate at 37° C. in a humidified incubator at 5% CO2 for 72 hours. One microcurie of 3H-thymidine (Amersham) is then added to each well, and cells are incubated again at 37° C. in a humidified incubator at 5% CO2 for 6 hours. The cells are harvested onto UniFilter GF/C filter plates (Perkin Elmer) using a cell harvester (Tomtec), and the plates are allowed to dry overnight. Microscint 20 (Packard) (25 μl/well) is added, and plates are analyzed in TopCount NXT (Packard). Each well is counted for one minute. Percent inhibition of cell proliferation is calculated by averaging all triplicates and normalizing to the DMSO control (0% inhibition). Each compound is tested in each cell line in three separate experiments. Final IC50s are calculated using non-linear regression, sigmoidal dose-response, constraining the top to 100% and bottom to 0%, allowing variable slope. (GraphPad Prism v3.02).
Abilities of certain compounds for inhibiting proliferation of Namalwa AG4 cells were determined using procedures substantially similar to those described in Section 5.48.3, above.
For orientation: Dividing cells build labelled thymidine or BrdU into new DNA.

As usually defined, the melting point is the temperature of the solid-liquid transition.

SMILES strings stand for the structures.

Compound `Cc1nc2ccc(CN)cc2c(=O)n1C1CCC(=O)NC1=O.Cl` (stereo not shown) registered a melting point of 299 to 301 °C.

The compound `Cc1nc2cc(CN)ccc2c(=O)n1C1CCC(=O)NC1=O.Cl` (stereo not shown) gave a melting point of 313 to 315 °C.

The compound `Cc1ccc(NC(=O)NCc2ccc3nc(C)n(C4CCC(=O)NC4=O)c(=O)c3c2)cc1Cl` (stereo not shown) [1-(3-chloro-4-methyl-phenyl)-3-[3-(2,6-dioxo-piperidin-3-yl)-2-methyl-4-oxo-3,4-dihydro-quinazolin-6-ylmethyl]-urea] displayed a melting point of 186 to 188 °C. Besides, the IC50 in the data set with Namalwa AG4 cells lay in the range of 0.01 to 5.5 µM.

`Cc1nc2ccc(CNC(=O)Nc3ccc(Cl)cc3)cc2c(=O)n1C1CCC(=O)NC1=O` (stereo not shown) [1-(4-chloro-phenyl)-3-[3-(2,6-dioxo-piperidin-3-yl)-2-methyl-4-oxo-3,4-dihydro-quinazolin-6-ylmethyl]-urea] gave a melting point of 225 to 227 °C. In the data set with Namalwa AG4 cells, the IC50 was 0.01 to 5.5 µM.

`Cc1cccc(NC(=O)NCc2ccc3nc(C)n(C4CCC(=O)NC4=O)c(=O)c3c2)c1` (stereo not shown) [1-[3-(2,6-dioxo-piperidin-3-yl)-2-methyl-4-oxo-3,4-dihydro-quinazolin-6-ylmethyl]-3-m-tolyl-urea]: the melting point was in the range of 200 to 202 °C. Also, in the data set with Namalwa AG4 cells, the IC50 was in the range of 0.01 to 5.5 µM.

The compound `Cc1nc2ccc(CNC(=O)Cc3ccc(Cl)cc3)cc2c(=O)n1C1CCC(=O)NC1=O` (stereo not shown) [2-(4-chloro-phenyl)-N-[3-(2,6-dioxo-piperidin-3-yl)-2-methyl-4-oxo-3,4-dihydro-quinazolin-6-ylmethyl]-acetamide] yielded a melting point of 229.5 to 231.5 °C. For the same compound, in the data set with Namalwa AG4 cells, the IC50 was 0.01 to 5.5 µM.

On to `Cc1nc2ccc(CNC(=O)c3ccc(Cl)c(Cl)c3)cc2c(=O)n1C1CCC(=O)NC1=O` (stereo not shown) [3,4-dichloro-N-[3-(2,6-dioxo-piperidin-3-yl)-2-methyl-4-oxo-3,4-dihydro-quinazolin-6-ylmethyl]-benzamide], for which the IC50 in the data set with Namalwa AG4 cells is 0.01 to 5.5 µM.

Regarding `Cc1ccc2c(=O)n(C3CCC(=O)NC3=O)c(C)nc2c1` (stereo not shown) [3-(2,7-dimethyl-4-oxo-4H-quinazolin-3-yl)-piperidine-2,6-dione], the melting point is 305 °C (dec.).

As for `Cc1cccc2c(=O)n(C3CCC(=O)NC3=O)c(C)nc12` (stereo not shown) [3-(2,8-dimethyl-4-oxo-4H-quinazolin-3-yl)-piperidine-2,6-dione], the melting point is 296 to 298 °C.

The compound `Cc1nc2c(C(F)(F)F)cccc2c(=O)n1C1CCC(=O)NC1=O` (stereo not shown) [3-(2-methyl-4-oxo-8-trifluoromethyl-4H-quinazolin-3-yl)-piperidine-2,6-dione] returned a melting point of 351 to 353 °C.

On to `COc1cc2nc(C)n(C3CCC(=O)NC3=O)c(=O)c2cc1OC` (stereo not shown) [3-(6,7-dimethoxy-2-methyl-4-oxo-4H-quinazolin-3-yl)-piperidine-2,6-dione], for which the melting point was 325 °C (dec.).

In the case of `Cc1nc2c(Br)cccc2c(=O)n1C1CCC(=O)NC1=O` (stereo not shown) [3-(8-bromo-2-methyl-4-oxo-4H-quinazolin-3-yl)-piperidine-2,6-dione], the melting point lay in the range of 307 to 309 °C.

The compound `Cc1nc2c(O)cccc2c(=O)n1C1CCC(=O)NC1=O` (stereo not shown) [3-(8-hydroxy-2-methyl-4-oxo-4H-quinazolin-3-yl)-piperidine-2,6-dione] registered a melting point of 266 to 268 °C.

`Cc1nc2ccc(CNC(=O)c3ccc(Cl)cc3)cc2c(=O)n1C1CCC(=O)NC1=O` (stereo not shown) [4-chloro-N-[3-(2,6-dioxo-piperidin-3-yl)-2-methyl-4-oxo-3,4-dihydro-quinazolin-6-ylmethyl]-benzamide] had a melting point of 267 to 269 °C.

For the compound `Cc1ccc2nc(C)n(C3CCC(=O)NC3=O)c(=O)c2c1` (stereo not shown) [Example 5.1, 3-(2,6-dimethyl-4-oxo-4H-quinazolin-3-yl)-piperidine-2,6-dione], the melting point fell in the range of 270 to 272 °C.

As to `Cc1nc2ccc(F)cc2c(=O)n1C1CCC(=O)NC1=O` (stereo not shown) [Example 5.3, 3-(6-fluoro-2-methyl-4-oxo-4H-quinazolin-3-yl)-piperidine-2,6-dione], the melting point fell in the range of 273 to 275 °C.

With `Cc1nc2ccc(Cl)cc2c(=O)n1C1CCC(=O)NC1=O` (stereo not shown) [Example 5.4, 3-(6-chloro-2-methyl-4-oxo-4H-quinazolin-3-yl)-piperidine-2,6-dione], the melting point is 276 to 278 °C.

`O=C1CCC(n2cnc3ccc(Cl)cc3c2=O)C(=O)N1` (stereo not shown) [Example 5.7, 3-(6-chloro-4-oxo-4H-quinazolin-3-yl)-piperidine-2,6-dione] displayed a melting point of 302 to 305 °C.

As for `Cc1ccc2ncn(C3CCC(=O)NC3=O)c(=O)c2c1` (stereo not shown) [Example 5.9, 3-(6-methyl-4-oxo-4H-quinazolin-3-yl)-piperidine-2,6-dione], the melting point is 285 to 287 °C.

With `Cc1nc2ccc(CNC(=O)OC(C)(C)C)cc2c(=O)n1C1CCC(=O)NC1=O` (stereo not shown) [Example 5.11, [3-(2,6-dioxo-piperidin-3-yl)-2-methyl-4-oxo-3,4-dihydro-quinazolin-6-ylmethyl]-carbamic acid tert-butyl ester], the melting point lay in the range of 212.5 to 214.5 °C.

The compound `Cc1nc2ccc(CNC(=O)N(C)C)cc2c(=O)n1C1CCC(=O)NC1=O` (stereo not shown) [Example 5.15, 3-[3-(2,6-dioxo-piperidin-3-yl)-2-methyl-4-oxo-3,4-dihydro-quinazolin-6-ylmethyl]-1,1-dimethyl-urea] displayed a melting point of 264 to 268 °C.

`Cc1nc2cc(C(F)(F)F)ccc2c(=O)n1C1CCC(=O)NC1=O` (stereo not shown) [Example 5.32, 3-(2-methyl-4-oxo-7-trifluoromethyl-4H-quinazolin-3-yl)-piperidine-2,6-dione] registered a melting point of 277 to 279 °C.

Compound `O=C1CCC(n2cnc3cc(F)ccc3c2=O)C(=O)N1` (stereo not shown) [Example 5.33, 3-(7-fluoro-4-oxo-4H-quinazolin-3-yl)-piperidine-2,6-dione] displayed a melting point of 296 to 298 °C.

In turn, `Cc1ccc2c(=O)n(C3CCC(=O)NC3=O)cnc2c1` (stereo not shown) [Example 5.34, 3-(7-methyl-4-oxo-4H-quinazolin-3-yl)-piperidine-2,6-dione] displayed a melting point of 313 to 315 °C.

Regarding `Cc1nc2cc(CNC(=O)OC(C)(C)C)ccc2c(=O)n1C1CCC(=O)NC1=O` (stereo not shown) [Example 5.36, [3-(2,6-dioxo-piperidin-3-yl)-2-methyl-4-oxo-3,4-dihydro-quinazolin-7-ylmethyl]-carbamic acid tert-butyl ester], the melting point lay in the range of 240 to 242 °C.

As to `Cc1nc2c(Cl)cccc2c(=O)n1C1CCC(=O)NC1=O` (stereo not shown) [Example 5.40, 3-(8-chloro-2-methyl-4-oxo-4H-quinazolin-3-yl)-piperidine-2,6-dione], the melting point lay in the range of 290 to 292 °C.

`Cc1cccc2c(=O)n(C3CCC(=O)NC3=O)cnc12` (stereo not shown) [Example 5.44, 3-(8-methyl-4-oxo-4H-quinazolin-3-yl)-piperidine-2,6-dione] gave a melting point of 290 to 292 °C.

Compound `Cc1nc2c(Cl)cc(Cl)cc2c(=O)n1C1CCC(=O)NC1=O` (stereo not shown) [Example 5.46, 3-(6,8-dichloro-2-methyl-4-oxo-4H-quinazolin-3-yl)-piperidine-2,6-dione] came in with a melting point of 238 to 240 °C.

`Cc1nc2ccc(CNC(=O)c3cccc(C(F)(F)F)c3)cc2c(=O)n1C1CCC(=O)NC1=O` (stereo not shown) [N-[3-(2,6-dioxo-piperidin-3-yl)-2-methyl-4-oxo-3,4-dihydro-quinazolin-6-ylmethyl]-3-trifluoromethyl-benzamide]: the melting point was 220 to 222 °C. Also, the IC50 in the data set with Namalwa AG4 cells lay in the range of 0.01 to 5.5 µM.

In turn, `Cc1nc2ccc(CNC(=O)c3ccc(OC(F)(F)F)cc3)cc2c(=O)n1C1CCC(=O)NC1=O` (stereo not shown) [N-[3-(2,6-dioxo-piperidin-3-yl)-2-methyl-4-oxo-3,4-dihydro-quinazolin-6-ylmethyl]-4-trifluoromethoxy-benzamide] showed a melting point of 165 to 167 °C. In addition, in the data set with Namalwa AG4 cells, the IC50 was in the range of 0.01 to 5.5 µM.

For the compound `Cc1nc2ccc(CNC(=O)c3ccc(C(F)(F)F)cc3)cc2c(=O)n1C1CCC(=O)NC1=O` (stereo not shown) [N-[3-(2,6-dioxo-piperidin-3-yl)-2-methyl-4-oxo-3,4-dihydro-quinazolin-6-ylmethyl]-4-trifluoromethyl-benzamide], the melting point was 221 to 223 °C. In addition, the IC50 with Namalwa AG4 cells was 0.01 to 5.5 µM.

Regarding `Cc1nc2ccc(CNC(=O)c3ccc(SC(F)(F)F)cc3)cc2c(=O)n1C1CCC(=O)NC1=O` (stereo not shown) [N-[3-(2,6-dioxo-piperidin-3-yl)-2-methyl-4-oxo-3,4-dihydro-quinazolin-6-ylmethyl]-4-trifluoromethyl-sulfanyl-benzamide], the melting point lay in the range of 169 to 171 °C. The IC50 in the data set on Namalwa AG4 cells was in the range of 0.01 to 5.5 µM.

`Cc1nc2ccc(CNC(=O)C3CC3)cc2c(=O)n1C1CCC(=O)NC1=O` (stereo not shown) [cyclopropanecarboxylic acid [3-(2,6-dioxo-piperidin-3-yl)-2-methyl-4-oxo-3,4-dihydro-quinazolin-6-ylmethyl]-amide] returned a melting point of 281 to 283 °C.

The compound `CCCCCCC(=O)NCc1ccc2nc(C)n(C3CCC(=O)NC3=O)c(=O)c2c1` (stereo not shown) [heptanoic acid [3-(2,6-dioxo-piperidin-3-yl)-2-methyl-4-oxo-3,4-dihydro-quinazolin-6-ylmethyl]-amide] displayed a melting point of 223 to 225 °C. Also, the IC50 in the data set on Namalwa AG4 cells fell in the range of 0.01 to 5.5 µM.

These data come from patent publication US8492395B2, “7-substituted quinazolinone compounds and compositions comprising the same” (Celgene Corporation, priority 2007, dated 2013).
